Source: PubChem BioAssay (NCI)
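96-well plates; 48 h exposure; 5 concentrations. Endpoints by linear interpolation between flanking doses. Not reached: highest tested concentration assigned. TGI denotes the concentration required for complete inhibition of growth.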

How the values were obtained:
Assay in all cases: NCI tumour cell line growth inhibition, 48 h
A498 renal = tested on: A498 renal
A549 NSCLC = tested on: A549 NSCLC
BT-549 breast = tested on: BT-549 breast
HCT-116 colon = tested on: HCT-116 colon
HOP-92 NSCLC = tested on: HOP-92 NSCLC
HS 578T breast = tested on: HS 578T breast
IGROV1 ovarian = tested on: IGROV1 ovarian
KM12 colon = tested on: KM12 colon
MCF7 breast = tested on: MCF7 breast
MDA-N = tested on: MDA-N
MOLT-4 leukemia = tested on: MOLT-4 leukemia
NCI-H23 lung = tested on: NCI-H23 lung
NCI-H460 lung = tested on: NCI-H460 lung
OVCAR-4 ovarian = tested on: OVCAR-4 ovarian
RXF 393 renal = tested on: RXF 393 renal
SK-MEL-28 melanoma = tested on: SK-MEL-28 melanoma
TK-10 renal = tested on: TK-10 renal
UACC-257 melanoma = tested on: UACC-257 melanoma
UACC-62 melanoma = tested on: UACC-62 melanoma
M14 melanoma = tested on: M14 melanoma

Row | Structure (SMILES) | TGI (A498 renal) [µM] | TGI (A549 NSCLC) [µM] | TGI (BT-549 breast) [µM] | TGI (HCT-116 colon) [µM] | TGI (HOP-92 NSCLC) [µM] | TGI (HS 578T breast) [µM] | TGI (IGROV1 ovarian) [µM] | TGI (KM12 colon) [µM] | TGI (MCF7 breast) [µM] | TGI (MDA-N) [µM] | TGI (MOLT-4 leukemia) [µM] | TGI (NCI-H23 lung) [µM] | TGI (NCI-H460 lung) [µM] | TGI (OVCAR-4 ovarian) [µM] | TGI (RXF 393 renal) [µM] | TGI (SK-MEL-28 melanoma) [µM] | TGI (TK-10 renal) [µM] | TGI (UACC-257 melanoma) [µM] | TGI (UACC-62 melanoma) [µM] | TGI (M14 melanoma) [µM]
1 | Nc1cc([N+](=O)[O-])ccc1C(=O)N1CCC[C@H]1CO | > 100 | > 100 | > 100 | > 100 | > 100 | > 100 | > 100 | > 100 | > 100 | > 100 | > 100 | > 100 | > 100 | > 100 | > 100 | > 100 | > 100 | > 100 | > 100 | 
2 | COc1ccc2nc(N/N=C/c3sccc3C)cc(C)c2c1 | 26.9 | 56.9 | 32.2 | 23.8 | 26.4 | 55.3 | 32.4 | 38.3 | 55.5 | 39.4 | 50.7 | 28.9 | 28.2 | 99.5 | 62.6 | 50.5 | 28.1 | 32.3 | 27.1 | 25.3
3 | CC1C2CC(C(S(=O)(=O)O)C2=O)C1(C)C (stereo not given) | > 100 |  | > 100 | > 100 | > 100 | > 100 | > 100 | > 100 | > 100 | > 100 | > 100 | > 100 | > 100 | > 100 | > 100 | > 100 | > 100 | > 100 | > 100 | > 100
4 | CC1(C)N/C(=C\[N+](=O)[O-])C(C)(C)N1O | > 10 | > 10 | > 10 | > 10 | > 10 | > 10 | > 10 | > 10 | > 10 | > 10 | > 10 | > 10 | > 10 | > 10 | > 10 | > 10 | > 10 | > 10 | > 10 | > 10
5 | CC(=O)OCC1OC(N2C(C)=C(C(C)=O)C(c3ccc(Cl)cc3)C(C#N)=C2S)C(OC(C)=O)C(OC(C)=O)C1OC(C)=O (stereo not given) | > 100 | > 100 | > 100 | > 100 | > 100 | > 100 | > 100 | > 100 | > 100 | > 100 | 82.2 |  | > 100 | > 100 | > 100 | > 100 | > 100 | > 100 | 60.6 | > 100
6 | CS(=O)(=O)C(C#N)c1nc2ccccc2nc1Cl (stereo not given) | > 100 | > 100 | > 100 | > 100 | > 100 | > 100 | > 100 | > 58.2 | > 100 | > 100 | > 100 | > 100 | > 100 | > 100 | > 100 | > 100 | > 66.5 | > 100 | > 100 | > 100
7 | CN(C)CCOc1ccc([N+](=O)[O-])c2cccnc12 | > 100 | > 100 | > 100 | > 100 |  | > 100 | > 100 | > 100 | > 100 | > 100 | > 100 | > 100 | > 100 |  |  | > 100 | > 100 | > 100 | > 100 | > 100
8 | CSc1c(C(=O)Nc2ccccc2)c(N)n(N)c(=O)c1C#N | > 100 | > 100 | > 100 | > 100 |  | > 100 | > 100 | > 100 | > 100 | > 100 | > 100 | > 100 | > 100 | > 100 | > 100 | > 100 | > 100 | > 100 | > 100 | > 100
9 | COC1(OC)N=C(N)C2(C#N)C(c3ccccc3)NC3=C(CCC3)C12C#N (stereo not given) | > 100 | > 100 | > 100 | > 100 | > 100 | > 100 | > 100 | > 100 | > 100 | > 100 | > 100 | > 100 | > 100 | > 100 | > 100 | > 100 | > 100 | > 100 | > 100 | > 100
10 | CCOC(=O)/C=C(\C(=O)OCC)n1cc(C)c(=O)n(Cc2cn(CCCCOC(C)=O)nn2)c1=O | 33 | 36.1 | 23.1 | 27.6 | 4.7 | 42.3 | 27.5 | 33.3 | 24.8 | 50.9 | 11.6 | 27.8 | 26 | 53.1 | 7.5 | 31.7 | 18.5 | 30.5 | 29.9 | 27
11 | NC(N)=NS(=O)(=O)c1ccc(NNc2c3ccccc3nc3ccccc23)cc1 |  | 45.4 | 28.5 | 32.8 | 31.5 | 93.6 | 81.7 | 28.6 | 16.8 | 28.4 | 2.85 | 36.4 | 23.4 | 21.7 | 36 | 29.2 | 42.7 | 46.1 | 35.3 | 26.8
12 | N[C@@H]1CCN(c2c(F)cc3c(=O)c(C(=O)O)cn4c3c2Oc2c-4ccc3c2ccc2ccccc23)C1 | > 100 | > 100 | > 100 |  | 61.7 | > 100 | 36.3 | > 100 | 3.34 | > 100 | > 100 | > 100 | 2.91 |  | > 100 | > 100 | 40 | > 100 | > 100 | > 100
